Experimental data reported in paper PMC2575047 (Molecular pharmacology, 2008).
Like-named read-outs stand apart in the source and are kept apart here.

How the values were obtained:
[1] = molecular target: human wild-type S1P1 (WT) (Homo sapiens, UniProt P21453); type: cell-based
S1P1 E^121A mutant = S1P1 E^121A mutant (Homo sapiens, UniProt P21453, E121A); type: cell-based; details: for EC50: without W146
S1P1 R^120A mutant = S1P1 R^120A mutant (Homo sapiens, UniProt P21453, R120A); type: cell-based; details: for Emax: CHO-K1; for EC50: without W146
S1P1 R^120A mutant, sequence (P21453 whole entry R120A): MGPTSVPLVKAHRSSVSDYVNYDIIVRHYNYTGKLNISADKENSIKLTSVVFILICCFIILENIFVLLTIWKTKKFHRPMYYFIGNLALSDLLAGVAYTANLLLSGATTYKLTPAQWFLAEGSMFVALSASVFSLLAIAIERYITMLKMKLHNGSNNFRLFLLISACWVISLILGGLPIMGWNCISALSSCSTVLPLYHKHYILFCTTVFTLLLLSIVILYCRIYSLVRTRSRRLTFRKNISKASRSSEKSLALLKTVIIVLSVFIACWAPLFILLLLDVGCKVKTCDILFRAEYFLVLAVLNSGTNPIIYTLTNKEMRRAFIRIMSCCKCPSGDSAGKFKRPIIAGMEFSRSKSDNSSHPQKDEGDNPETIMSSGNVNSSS

[2] = Brain exposure in C57Bl6 mice; type: in vivo; details: C57Bl6, mouse, ip, 10 mg/kg
Water solubility = type: physicochemical
human S1P1 = human S1P1 (Homo sapiens, UniProt P21453); type: cell-based
human S1P1, sequence (P21453 whole entry): as the sequence (P21453 whole entry R120A) above, with A120R counted along it

human S1P1-GFP [3] = molecular target: T1, human S1P1-GFP (Homo sapiens, UniProt P21453); assay: S1P1-GFP ubiquitination in HEK293 cells; type: cell-based
T1 sequence (P21453 whole entry): as the sequence (P21453 whole entry R120A) above, with A120R counted along it

human S1P1-GFP [4] = molecular target: T1, human S1P1-GFP; assay: S1P1-GFP internalization in HEK293 cells; type: cell-based
[5] = Serum drug concentration in the lymphopenia studies; type: in vivo, C57BL6 mice; details: mice; for serum drug concentration (± SD): W146 20 mg/kg + CYM-5442 2 mg/kg group, 5 h
human S1P5 = human S1P5 (Homo sapiens, UniProt Q9H228); assay: S1P5 agonist format, TANGO S1P5-bla U2OS cells; type: cell-based
human S1P5, sequence (Q9H228 whole entry): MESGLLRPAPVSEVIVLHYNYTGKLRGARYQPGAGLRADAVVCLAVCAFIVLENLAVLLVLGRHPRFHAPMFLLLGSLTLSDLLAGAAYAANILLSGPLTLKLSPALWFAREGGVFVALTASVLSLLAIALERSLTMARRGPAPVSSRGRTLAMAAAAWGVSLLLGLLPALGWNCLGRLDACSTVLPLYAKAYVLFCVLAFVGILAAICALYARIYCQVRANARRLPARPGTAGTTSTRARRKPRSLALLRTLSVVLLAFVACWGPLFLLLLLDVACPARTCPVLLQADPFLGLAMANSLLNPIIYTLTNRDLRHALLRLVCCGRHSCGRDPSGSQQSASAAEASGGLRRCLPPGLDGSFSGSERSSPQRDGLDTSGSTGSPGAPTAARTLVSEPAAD

human S1P1-GFP [6] = molecular target: T1, human S1P1-GFP; assay: S1P1-GFP phosphorylation, P^32-orthophosphate labeled HEK293 cells; type: cell-based
[7] = Pharmacokinetics in Sprague Dawley rats; type: in vivo; details: rat
[8] = test system: blood lymphocytes (WBC, B220+, CD4+, CD8+); assay: CYM-5442 mediated lymphopenia in mice; type: in vivo, C57BL6 mice; details: for B220^+ cells, percent relative to animals receiving both drug vehicles / CD4^+ cells, percent relative to animals receiving both drug vehicles / CD8^+ cells, percent relative to animals receiving both drug vehicles: W146 20 mg/kg i.p. 30 min before, CYM-5442 2 mg/kg
[9] = EC50, activation of p42/p44 MAPK phosphorylation, WT, without W146
[10] = Sprague Dawley, plasma, iv, 1 mg/kg
[11] = Sprague Dawley, plasma, po, 2 mg/kg

human wild-type S1P1 (WT), sequence (P21453 whole entry): as the sequence (P21453 whole entry R120A) above, with A120R counted along it
S1P1 E^121A mutant, sequence (P21453 whole entry E121A): as the sequence (P21453 whole entry R120A) above, with A120R, E121A counted along it

CCCCCCCCCCCCC/C=C/[C@@H](O)[C@@H](N)COP(=O)(O)O [S1P, Sphingosine-1 phosphate]
EC50 ([1]; EC50, activation of p42/p44 MAPK phosphorylation, WT, 10 μM W146 prior to agonist): 140 nM | EC50 [1, 9]: 2.3 nM | EC50 ([1]; LogEC50, WT, without W146, log EC50 printed negative, 5 min stimulation): 2.51 nM | rightward shift in potency by 10 μM W146 ([1]; WT, agonist with W146 vs agonist alone): 60 fold | p42/p44 MAPK activation in the mutant (S1P1 E^121A mutant; E^121A): did not lead to significant p42/p44 MAPK activation | Emax (S1P1 R^120A mutant): 25% | p42/p44 MAPK activity in the mutant (S1P1 R^120A mutant; R^120A): near loss of p42/p44 MAPK activity

N#CC(=C(/N)Sc1ccccc1N)/C(C#N)=C(/N)Sc1ccccc1N [U0126]
block of S1P and CYM-5442 stimulated P42/P44 MAPK phosphorylation ([1]; 10 μM pre-incubation): completely blocked

CCOc1ccc(-c2nc(-c3cccc4c3CCC4NCCO)no2)cc1OCC (centres unmarked) [CYM-5442, 2-(4-(5-(3,4-diethoxyphenyl)-1,2,4-oxadiazol-3-yl)-2,3-dihydro-1H-inden-1-ylamino) ethanol]
concentration at 2 h ([2]; brain): 13700 ± 2900 nM | concentration at 2 h ([2]; plasma): 1080 ± 300 nM | water solubility (Water solubility): moderately water-soluble | Emax ([1]; CHO-K1): 70% | EC50 [1, 9]: 46 nM | Emax (S1P1 E^121A mutant; CHO-K1): 100% | rightward shift in potency by W146 preincubation (S1P1 E^121A mutant; E^121A): 10 fold | EC50 (S1P1 E^121A mutant; LogEC50, E^121A, log EC50 printed negative): 126 nM | EC50 (S1P1 E^121A mutant; mean EC50, activation of p42/p44 MAPK, E^121A): 134 nM | EC50 (human S1P1): 1.35 nM | agonist efficacy compared to SEW2871 (human S1P1; CRE reporter, agonist format): full agonist compared to SEW2871 | more potent than SEW2871 in vitro (human S1P1; depending on which agonist format was used): 10-50 fold | Emax (human S1P1; read-out: Agonist format (Emax)): 100% | S1P1-GFP receptor ubiquitination (human S1P1-GFP [3]; 1 h incubation): stimulated receptor ubiquitination (UB-S1P1-GFP) to AFD-R levels | S1P1-GFP internalization (human S1P1-GFP [4]; 500 nM): stimulated the internalization of S1P1-GFP receptor | serum drug concentration (± SD) [5]: 190 ± 40 nM | serum CYM-5442 concentration required for induction and maintenance of lymphopenia ([5]; i.p.): ~50 nM | selectivity for S1P1 over S1P5 (human S1P5): 10,000 fold | Emax (human S1P5; U2OS, read-out: Agonist format (Emax)): 20% | S1P1 phosphorylation (human S1P1-GFP [6]; 500 nM): stimulated S1P1 phosphorylation in a time-dependent manner | Emax (S1P1 R^120A mutant): 100% | EC50 (S1P1 R^120A mutant; EC50, p42/p44 MAPK activity, R^120A): 67 nM | EC50 (S1P1 R^120A mutant; LogEC50, R^120A, log EC50 printed negative): 63.1 nM | rightward shift in EC50 by 10 μM W146 (S1P1 R^120A mutant; R^120A): 3 fold | AUC [7, 10]: 0.57 ± 0.1 µM·h | Cmax [7, 10]: 220 ± 18 nM | MRT [7, 10]: 3.54 ± 0.38 h | Tmax [7, 10]: 0.083 h | clearance [7, 10]: 72.9 ± 11.7 mL/min/kg | half-life ([7]; Sprague Dawley, plasma, iv, 1 mg/kg, half-life (t1/2)): 0.833 h | half-life ([7]; Sprague Dawley, plasma, iv, 1 mg/kg, t1/2, rat, 1 mg/kg i.v.): 3.05 ± 0.37 h | bioavailability ([7]; Sprague Dawley, plasma, oral, 2 mg/kg): 20.5 ± 4.67% | AUC [7, 11]: 0.23 ± 0.053 µM·h | Cmax [7, 11]: 36 ± 7.2 nM | MRT [7, 11]: 6.35 ± 2.1 h | Tmax [7, 11]: 1.17 ± 0.76 h | half-life ([7]; Sprague Dawley, plasma, po, 2 mg/kg, half-life (t1/2), P.O.): 3 h | half-life ([7]; Sprague Dawley, plasma, po, 2 mg/kg, t1/2, rat, 2 mg/kg PO): 4 ± 1.45 h | AUC (% extrap,ob) ([7]; 1 mg/kg i.v.): 11.35 ± 14.20% | AUC (% extrap,ob) ([7]; 2 mg/kg PO): 27.80 ± 14.20% | Cl ([7]; 2 mg/kg PO): 360.1 ± 73.3 mL/min/kg | decrease of B-lymphocytes, of vehicle ([8]; abstract): 65% | decrease of T-lymphocytes, of vehicle ([8]; abstract): 85% | reduction of CD4^+, CD8^+ and B220^+ cell counts, of vehicle ([8]; mice, 2 mg/kg, 5 h): approximately 50% | decrease of B220^+ B-cells compared to vehicle ([8]; mice, 10 mg/kg i.p., 5 h): 63% | decrease of CD4^+ T-cell counts, of vehicle ([8]; mice, 10 mg/kg i.p., 5 h): 83% | decrease of CD8^+ T-cell counts, of vehicle ([8]; mice, 10 mg/kg i.p., 5 h): 84% | decrease of WBC counts vs. vehicle ([8]; mice, 10 mg/kg i.p., 5 h): 64% | % CD4^+ ([8]; mice, 10 mg/kg i.p., 5 h, vehicle 11.5±0.2): 1.9±0.2 % | WBC (K/mm^3) ([8]; mice, 10 mg/kg i.p., 5 h, vehicle 11.9±0.2): 4.3±0.4 K/mm^3 | % CD8^+ ([8]; mice, 10 mg/kg i.p., 5 h, vehicle 11.9±0.3): 1.9±0.4 % | % B220^+ ([8]; mice, 10 mg/kg i.p., 5 h, vehicle 40.5±0.6): 14.7±0.5 % | B220^+ cells, percent relative to animals receiving both drug vehicles ([8]; mice, 5 h): 46.0±18.1 % | CD4^+ cells, percent relative to animals receiving both drug vehicles ([8]; mice, 5 h): 53.5 ± 6.5 % | CD8^+ cells, percent relative to animals receiving both drug vehicles ([8]; mice, 5 h): 47.4±7.5 %

CCCCCCc1cccc(NC(=O)[C@H](N)CCP(=O)(O)O)c1 [W146, (R)-3-Amino-(3-hexylphenylamino)-4-oxobutylphosphonic acid, reference compound]
inhibition of CYM-5442-mediated p42/p44 MAPK phosphorylation ([1]; WT cells, 10 μM W146 preincubation): complete inhibition | effect on CYM-5442-stimulated S1P1 ubiquitination (human S1P1-GFP [3]; pre-incubation 30 min): nearly abolish | effect of antagonist alone on internalization (human S1P1-GFP [4]): did not have an effect on internalization | effect on internalization of S1P1-GFP by CYM-5442 (human S1P1-GFP [4]; 10 μM preincubation): completely blocked | serum drug concentration (± SD) [5]: 1760 ± 310 nM | effect of antagonist alone on S1P1 phosphorylation (human S1P1-GFP [6]; 10 μM): no effect | effect on CYM-5442-mediated S1P1 phosphorylation (human S1P1-GFP [6]; 10 μM, 30 min pre-incubation): completely abolished | reversal of CYM-5442 effects on B-220^+, CD4^+ and CD8^+ cell counts ([8]; W146 20 mg/kg 30 min before CYM-5442 2 mg/kg): partially recover | B220^+ cells, percent relative to animals receiving both drug vehicles ([8]; mice, 5 h): 114.7±5.9% | CD4^+ cells, percent relative to animals receiving both drug vehicles ([8]; mice, 5 h): 108.1 ±17.4% | CD8^+ cells, percent relative to animals receiving both drug vehicles ([8]; mice, 5 h): 112.2±19.6%
